A word on the Ki: it is the dissociation constant of the complex between target and ligand, obtained from inhibition or displacement. Lower therefore signals a stronger hold on the target.

In patent publication US9328138B2 (priority 2011, dated 2016) one finds Ki data, which are given here for 9 compounds.

For assay [1], the target named is T1, HCV genotype 1b (BK) NS3 modified enzyme with a R155K mutation (Hepatitis C virus genotype 1b, UniProt P26663, R1181K).
T1 construct: HCV genotype 1b (BK) NS3 modified enzyme
Put plainly: HCV NS3 protease time-resolved fluorescence (TRF) assay, genotype 1b R155K. Format: biochemical. The note with it: Ki 1b R155K, genotype 1b (BK) NS3 R155K; single value. Here is the method:
(§1) The HCV NS3 protease inhibitory activity of the present compounds may be tested using assays known in the art. One such assay is HCV NS3 protease time-resolved fluorescence (TRF) assay as described below and in International Patent Application Publication No. WO2006/102087. Other examples of such assays are described in e.g., International Patent Application Publication No. WO2005/046712. The assay is performed in a final volume of 100 μl in assay buffer containing 50 mM HEPES, pH 7.5, 150 mM NaCl, 15% glycerol, 0.15% Triton X-100, 10 mM DTT, and 0.1% PEG 8000. NS3 protease is pre-incubated with various concentrations of inhibitors in DMSO for 30 minutes. The reaction is initiated by adding the TRF peptide substrate (final concentration 100 nM). NS3 mediated hydrolysis of the substrate is quenched after 1 hour at room temperature with 100 μl of 500 mM MES, pH 5.5. Product fluorescence is detected using either a VICTOR V2 or FUSION fluorophotometer (Perkin Elmer Life and Analytical Sciences) with excitation at 340 nm and emission at 615 nm with a 400 μs delay. Testing concentrations of different enzyme forms are selected to result in a signal to background ratio (S/B) of 10-30. IC50 values are derived using a standard four-parameter fit to the data. K; values are derived from IC50 values using the following formula, IC50=Ki(1+[S]/Km), Eqn (1), where [S] is the concentration of substrate peptide in the reaction and KM is the Michaelis constant. See Gallinari et al., 1999, Biochem. 38:5620-32; Gallinari et al., 1998, J. Virol. 72:6758-69; Taliani et al., 1996, Anal. Biochem. 240:60-67.
(§2) The HCV NS3 protease inhibitory activity was measured using the protease time-resolved fluorescence (TRF) assay as described below and in International Patent Application Publication No. WO 2006/102087. The assay was performed with HCV genotype 1b (BK) NS3 modified enzyme with a R155K mutation and genotype 3a (3A-1).
(§3) The assay was performed in a final volume of 50 μl in assay buffer containing 50 mM HEPES, pH 7.5, 150 mM NaCl, 15% glycerol, 0.15% TRITON X-100, 10 mM DTT, and 0.1% PEG 8000. NS3 and NS4A protease is pre-incubated with various concentrations of inhibitors in DMSO for 10 minutes. The reaction was initiated by adding the TRF peptide substrate (final concentration 25 nM) and NS3 mediated hydrolysis of the substrate proceeds for 6 hours at room temperature. Product fluorescence is detected using an Envision plate reader (Perkin Elmer) with excitation at 340 nm and emission at 615 nm with a 400 μs delay. Testing concentrations of the enzymes were selected to result in a signal to background ratio (S/B) of 5-20. IC50 values are derived using a standard four-parameter fit to the data.
(§4) NS3 and NS4A protease is pre-incubated with various concentrations of inhibitors in DMSO for 30 minutes. The reaction is initiated by adding the TRF peptide substrate (final concentration 100 nM). NS3 mediated hydrolysis of the substrate is quenched after 1 hour at room temperature with 100 μl of 500 mM MES, pH 5.5. Product fluorescence is detected using either a VICTOR V2 or FUSION fluorophotometer (Perkin Elmer Life and Analytical Sciences) with excitation at 340 nm and emission at 615 nm with a 400 μs delay. Testing concentrations of the enzymes are selected to result in a signal to background ratio (S/B) of 8-30. IC50 values are derived using a standard four-parameter fit to the data. Ki values are derived from IC50 values using the following formula, IC50=Ki(1+[S][…]), Eqn (1), where [S] is the concentration of substrate peptide in the reaction and KM is the Michaelis constant. See Gallinari et al., 1999, Biochem. 38:5620-32; Gallinari et al., 1998, J. Virol. 72:6758-69; and Taliani et al., 1996, Anal. Biochem. 240:60-67. ND means not determined.

In assay [2] the target is HCV NS3 protease genotype 3a (3A-1) (Hepatitis C virus genotype 3a, UniProt Q81258). Put plainly: HCV NS3 protease time-resolved fluorescence (TRF) assay, genotype 3a. Type of assay: biochemical. To be noted: Ki 3a. As to the method: as §1, §2, §3, §4

Structures are written as SMILES.

Consider `C=C[C@@H]1C[C@]1(NC(=O)[C@@H]1C[C@@H]2CN1C(=O)[C@H](C1CCCC1)NC(=O)O[C@@H]1CCC[C@H]1CC/C=C/Cc1c(nc3ccccc3c1OCC)O2)C(=O)NS(=O)(=O)C1CC1` [Example 1, (3aR,7S,10S,12R,21E,24aS)-7-cyclopentyl-N-{(1R,2S)-1-[(cyclopropylsulfonyl)carbamoyl]-2-ethenylcyclopropyl}-19-ethoxy-5,8-dioxo-1,2,3,3a,5,6,7,8,11,12,20,23,24,24a-tetradecahydro-10H-9,12-methanocyclopenta[18,19][1,10,3,6]dioxadiazacyclononadecino[11,12-b]quinoline-10-carboxamide], for which the Ki worked out at 0.25 nM in assay [1] and 6.1 nM in assay [2].

Turning to `CCOc1c2c(nc3ccccc13)O[C@@H]1C[C@@H](C(=O)N[C@]3(C(=O)NS(=O)(=O)C4CC4)C[C@H]3CC)N(C1)C(=O)[C@H](C1CCCC1)NC(=O)O[C@@H]1CCC[C@H]1CC/C=C/C2` [Example 2, (3aR,7S,10S,12R,21E,24aS)-7-cyclopentyl-N-{(1R,2R)-1-[(cyclopropylsulfonyl)carbamoyl]-2-ethylcyclopropyl}-19-ethoxy-5,8-dioxo-1,2,3,3a,5,6,7,8,11,12,20,23,24,24a-tetradecahydro-10H-9,12-methanocyclopenta[18,19][1,10,3,6] dioxadiazacyclononadecino[11,12-b] quinoline-10-carboxamide], the Ki in assay [1] stood at 2.7 nM; in assay [2] it was 31 nM.

Regarding `C=C[C@@H]1C[C@]1(NC(=O)[C@@H]1C[C@@H]2CN1C(=O)[C@H](C1CCCC1)NC(=O)O[C@@H]1CCC[C@H]1CC/C=C\Cc1c(nc3ccccc3c1OCC)O2)C(=O)NS(=O)(=O)C1CC1` [Example 3, (3aR,7S,10S,12R,21Z,24aS)-7-cyclopentyl-N-{(1R,2S)-1-[(cyclopropylsulfonyl)carbamoyl]-2-ethenylcyclopropyl}-19-ethoxy-5,8-dioxo-1,2,3,3a, 5,6,7,8,11,12,20,23,24,24a-tetradecahydro-10H-9,12-methanocyclopenta[18,19][1,10,3,6] dioxadiazacyclononadecino[11,12-b] quinoline-10-carboxamide], the Ki in assay [1] was 1.4 nM; in assay [2] it was 35 nM.

Turning to `C=C[C@@H]1C[C@]1(NC(=O)[C@@H]1C[C@@H]2CN1C(=O)[C@H](C1CCCC1)NC(=O)O[C@@H]1CCC[C@H]1CC/C=C/Cc1c(nc3ccccc3c1OC)O2)C(=O)NS(=O)(=O)C1CC1` [Example 4, (3aR,7S,10S,12R,21E,24aS)-7-cyclo pentyl-N-{(1R,2S)-1-[(cyclopropylsulfonyl)carbamoyl]-2-ethenylcyclopropyl}-19-methoxy-5,8-dioxo-1,2,3,3a,5,6,7,8,11,12,20,23,24,24a-tetradeca hydro-10H-9,12-methanocyclopenta[18,19][1,10,3,6] dioxadiazacyclononadecino[11,12-b]quinoline-10-carboxamide], the figures for the Ki in assay [1] and in assay [2] were 0.11 nM and 3.4 nM, respectively.

On to `CC[C@@H]1C[C@]1(NC(=O)[C@@H]1C[C@@H]2CN1C(=O)[C@H](C1CCCC1)NC(=O)O[C@@H]1CCC[C@H]1CC/C=C/Cc1c(nc3ccccc3c1OC)O2)C(=O)NS(=O)(=O)C1CC1` [Example 5, (3aR,7S,10S,12R,21E,24aS)-7-cyclopentyl-N-{(1R,2R)-1-[(cyclopropylsulfonyl)carbamoyl]-2-ethylcyclopropyl}-19-methoxy-5,8-dioxo-1,2,3,3a, 5,6,7,8,11,12,20,23,24,24a-tetradecahydro-10H-9,12-methanocyclopenta[18,19][1,10,3,6] dioxadiazacyclononadecino[11,12-b]quinoline-10-carboxamide], for which the Ki in assay [1] amounted to 0.59 nM; in assay [2], 17 nM.

For the compound `C=C[C@@H]1C[C@]1(NC(=O)[C@@H]1C[C@@H]2CN1C(=O)[C@H](C(C)(C)C)NC(=O)O[C@@H]1CCC[C@H]1CC/C=C/Cc1c(nc3ccccc3c1OC)O2)C(=O)NS(=O)(=O)C1CC1` [Example 6, (3aR,7S,10S,12R,21E,24aS)-7-tert-butyl-N-{(1R,2S)-1-[(cyclopropylsulfonyl)carbamoyl]-2-ethenylcyclopropyl}-19-methoxy-5,8-dioxo-1,2,3,3a,5,6,7,8,11,12,20,23,24,24a-tetradecahydro-10H-9,12-methanocyclopenta[18,19][1,10,3,6] dioxadiazacyclononadecino[11,12-b]quinoline-10-carboxamide], the Ki stood at 0.1 nM in assay [1] and 1.3 nM in assay [2].

As to `C=C[C@@H]1C[C@]1(NC(=O)[C@@H]1C[C@@H]2CN1C(=O)[C@H](C(C)(C)C)NC(=O)O[C@@H]1CCC[C@H]1CC/C=C\Cc1c(nc3ccccc3c1OC)O2)C(=O)NS(=O)(=O)C1CC1` [Example 7, (3aR,7S,10S,12R,21Z,24aS)-7-tert-butyl-N-{(1R,2S)-1-[(cyclopropylsulfonyl)carbamoyl]-2-ethenylcyclopropyl}-19-methoxy-5,8-dioxo-1,2,3,3a,5,6,7,8,11,12,20,23,24,24a-tetradecahydro-10H-9,12-methanocyclopenta[18,19][1,10,3,6] dioxadiazacyclononadecino[11,12-b]quinoline-10-carboxamide], the values for the inhibition constant (Ki) in assay [1] and in assay [2] were 0.76 nM and 17 nM, respectively.

As to `C=C[C@@H]1C[C@]1(NC(=O)[C@@H]1C[C@@H]2CN1C(=O)[C@H](C1CCCC1)NC(=O)O[C@@H]1CCC[C@H]1CC/C=C/Cc1c(nc3ccccc3c1OCc1ccccc1)O2)C(=O)NS(=O)(=O)C1CC1` [Example 8, (3aR,7S,10S,12R,21E,24aS)-19-(benzyloxy)-7-cyclopentyl-N-{(1R,2S)-1-[(cyclopropylsulfonyl)carbamoyl]-2-ethenylcyclopropyl}-5,8-dioxo-1,2,3,3a,5,6,7,8,11,12,20,23,24,24a-tetradecahydro-10H-9,12-methanocyclopenta[18,19][1,10,3,6] dioxadiazacyclononadecino[11,12-b]quinoline-10-carboxamide], the Ki is 1.6 nM in assay [1] and 51 nM in assay [2].

With `C=C[C@@H]1C[C@]1(NC(=O)[C@@H]1C[C@@H]2CN1C(=O)[C@H](C1CCCC1)NC(=O)O[C@@H]1CCC[C@H]1CC/C=C/Cc1c(nc3cc(Cl)ccc3c1OC)O2)C(=O)NS(=O)(=O)C1CC1` [Example 9, (3aR,7S,10S,12R,21E,24aS)-16-chloro-7-cyclopentyl-N-{(1R,2S)-1-[(cyclopropylsulfonyl)carbamoyl]-2-ethenylcyclopropyl}-19-methoxy-5,8-dioxo-1,2,3,3a,5,6,7,8,11,12,20,23,24,24a-tetradecahydro-10H-9,12-methanocyclopenta [18,19][1,10,3,6]dioxadiazacyclononadecino [11,12-b]quinoline-10-carboxamide], the Ki came out at 0.14 nM in assay [1] and 2.9 nM in assay [2].
